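These data come from cells grown in 96-well plates and exposed to compound for 48 hours at five concentrations. GI50 = concentration required for 50% inhibition of growth. At the TGI there is no net growth.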 Where a SMILES comes first, the peptide text is derived from it. [ ]: non-standard residue; d: D form. The star is where a group is joined. ξ: configuration not given here. ξF = NC(Cc1ccccc1)C(=O)O; Cbz = O=C(OCc1ccccc1)*; Aib = CC(C)(N)C(=O)O
How the values were obtained:
Assay in all cases: NCI tumour cell line growth inhibition, 48 h
[1] = system: OVCAR-5 ovarian
[2] = system: T-47D breast
[3] = system: HCT-15 colon
[4] = system: KM12 colon
[5] = system: SF-539 CNS
[6] = system: SNB-75 CNS
[7] = system: HS 578T breast
[8] = system: MCF7 breast
[9] = system: MALME-3M melanoma
[10] = system: UO-31 renal

Row | SMILES | TGI [1] [µM] | TGI [2] [µM] | TGI [3] [µM] | TGI [4] [µM] | TGI [5] [µM] | TGI [6] [µM] | TGI [7] [µM] | TGI [8] [µM] | TGI [9] [µM] | TGI [10] [µM] | GI50 [1] [µM] | GI50 [2] [µM] | GI50 [3] [µM] | GI50 [4] [µM] | GI50 [5] [µM] | GI50 [6] [µM] | GI50 [7] [µM] | GI50 [8] [µM] | GI50 [9] [µM] | GI50 [10] [µM]
1 | CCCCOC(=O)C(=O)C(CCC(=O)c1ccc(C)cc1)C(=O)C=C(C)C (stereo not given) | > 100 | > 100 | > 100 | > 100 | > 100 | > 100 | > 100 | > 100 | > 100 | > 100 | – | – | – | – | – | – | – | – | – | –
2 | COc1ccc2nc3cc(Cl)ccc3c(NCCCCCC(=O)NC(COc3cnc4c(ccc5cccnc54)c3)COc3cnc4c(ccc5cccnc54)c3)c2c1 | > 100 | 28.6 | > 100 | > 100 | 53.5 | 4.78 | > 100 | 17.7 | > 100 | > 100 | – | – | – | – | – | – | – | – | – | –
3 | COc1cc2c(cc1C[N+](C)(C)CSc1ccccc1)-c1ccccc1CC2 | 24.3 | 16.2 | 30.2 | 6.92 | 20.6 | 6.17 | 19.3 | 16.4 | 6.23 | 28.6 | – | – | – | – | – | – | – | – | – | –
4 | O=C(Nc1sccc1S(=O)(=O)c1ccccc1)c1cccnc1 | > 100 | > 100 | > 100 | > 100 | 38.2 | > 91 | > 100 | > 100 | > 100 | > 100 | – | – | – | – | – | – | – | – | – | –
5 | COC(=O)/C=C/c1ccccc1N=[S@](C)(=O)c1ccc(C)cc1 | > 100 | > 100 | > 100 | > 100 | > 100 | 36.1 | 64.6 | > 100 | > 100 | > 100 | – | – | – | – | – | – | – | – | – | –
6 | c1ccc2c(-c3cnc(-c4c[nH]c5ccccc45)cn3)c[nH]c2c1 | > 100 | > 100 | > 100 | > 100 | 73.7 | 94.4 | > 100 | > 100 | > 100 | > 100 | – | – | – | – | – | – | – | – | – | –
7 | COc1ccc2c(c1)OC(c1cccnc1)C(c1ccccc1)C2=O (stereo not given) | > 100 | > 100 | > 100 | > 100 | > 100 | > 100 | > 100 | > 100 | > 100 | > 100 | – | – | – | – | – | – | – | – | – | –
8 | COc1cccc(N2C(=O)C3c4[nH]c5ccccc5c4C4c5ccccc5CCC4C3C2=O)c1 (stereo not given) | > 10 | > 10 | > 10 | > 10 | 6.11 | 6.3 | 7.06 | > 10 | > 9.13 | > 10 | – | – | – | – | – | – | – | – | – | –
9 | O=C(NCCN(CCNC(=O)c1cccc(=O)n1O)CCN(CCNC(=O)c1cccc(=O)n1O)CCNC(=O)c1cccc(=O)n1O)c1cccc(=O)n1O | > 100 | > 100 | > 100 | > 100 | > 100 | > 100 | > 100 | > 100 | > 100 | > 100 | – | – | – | – | – | – | – | – | – | –
10 | CC(=O)NCCCCNCCCNC(C)=O | > 100 | > 100 | > 100 | > 100 | > 100 | > 100 | > 100 | > 100 | > 100 | > 100 | – | – | – | – | – | – | – | – | – | –
11 | Cn1ccnc1Sc1ccc(/C=N/NC(=O)c2ccccc2O)cc1[N+](=O)[O-] | > 100 | > 100 | > 100 | > 100 | > 100 | > 100 | > 100 | > 100 | > 100 | > 100 | – | – | – | – | – | – | – | – | – | –
12 | C=CC(=O)N1C/C(=C\c2ccc(N(C)C)cc2)C(=O)/C(=C/c2ccc(N(C)C)cc2)C1 | > 100 | > 100 | > 100 | > 100 | > 100 | > 100 | > 100 | > 100 | > 100 | > 100 | – | – | – | – | – | – | – | – | – | –
13 | N#CC1=C2Sc3ccccc3N2[C@H](c2ccccc2)[C@H]2COC(=O)[C@@H]12 | > 100 | > 100 | > 100 | > 100 | > 100 | 97.1 | > 100 | > 100 | 81.8 | > 100 | – | – | – | – | – | – | – | – | – | –
14 | CC(=O)O[C@H]1CC[C@@]2(C)C(=CC[C@@H]3[C@@H]2CC[C@]2(C)C(c4cccnc4)=CC[C@@H]32)C1 | > 100 | 55.7 | > 100 | > 100 | > 100 | 15.6 | 71.3 | > 100 | 33.9 | > 100 | 18.7 | 2.81 | 4.48 | 3.73 | 3.14 | 2.6 | 3.38 | 4.84 | 3.24 | 5.47
15 | CC(C)(NC(=O)OCc1ccccc1)C(=O)NC(Cc1ccccc1)C(=O)O (stereo not given) (Cbz-[Aib]-[ξF]-OH) | > 100 | > 100 | > 100 | > 100 | > 100 | > 100 | > 100 | > 100 | > 100 | > 100 | – | – | – | – | – | – | – | – | – | –
16 | COC(=O)c1cc(C)ccc1CC(Cc1cccc(C)c1)C(=O)OC (stereo not given) | > 100 | > 100 | > 100 | > 100 | > 100 | > 100 | > 100 | > 100 | > 100 | > 100 | – | – | – | – | – | – | – | – | – | –
17 | CCCC/C=C1\CCC(CN2CCCCC2)C1=O (stereo not given) | 49.9 | > 100 | 20.6 | > 33.8 | 36.1 | > 100 | > 100 | > 100 | 15.4 | 47.7 | – | – | – | – | – | – | – | – | – | –

Reference: PubChem BioAssay (NCI)
